{"source": "PubChem BioAssay AID1417", "about": "(Emory University Molecular Libraries Screening Center, 2008)"}
{"biological_target": "Induced myeloid leukemia cell differentiation protein Mcl-1 (Homo sapiens) (UniProt Q07820)", "sequence (Q07820 whole entry, looked up)": "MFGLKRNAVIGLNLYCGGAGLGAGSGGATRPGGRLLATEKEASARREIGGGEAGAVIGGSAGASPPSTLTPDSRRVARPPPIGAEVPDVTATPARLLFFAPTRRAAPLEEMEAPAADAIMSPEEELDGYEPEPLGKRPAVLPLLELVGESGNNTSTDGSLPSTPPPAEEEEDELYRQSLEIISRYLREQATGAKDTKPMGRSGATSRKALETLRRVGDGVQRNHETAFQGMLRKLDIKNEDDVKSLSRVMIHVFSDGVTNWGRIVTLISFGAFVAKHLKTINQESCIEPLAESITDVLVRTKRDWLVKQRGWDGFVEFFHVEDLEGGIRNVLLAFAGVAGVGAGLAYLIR", "experiment": "Mcl-1 Noxa peptide disruption concentration-response – biochemical, TR-FRET, dose response (AID 1417)", "details": "Mcl-1/Noxa peptide interaction, cell-free TR-FRET (terbium/rhodamine), 2 h; measured here: absolute IC50", "units": {"IC50": "nM"}}
{"smiles": "O=C1NC(=O)N(c2ccccc2)C(=O)/C1=C\\c1ccc2c3c(cccc13)CC2", "IC50": 8210}
{"smiles": "O=C(N=Nc1c(O)n(Cc2ccccc2)c2ccccc12)c1cc2ccccc2cc1O", "IC50": 4760}
{"smiles": "COc1ccc2c(=O)c3c(=O)n(-c4ccc(C)cc4)c(-c4ccccc4)nc3oc2c1", "IC50": "> 54000"}
{"smiles": "NC(=O)c1c(Nc2nc3c(F)cccc3s2)sc2c1CCCC2", "IC50": "< 400"}
{"smiles": "CC1=Nc2ccc(C)cc2/C1=C/c1c(N)n2c(S(=O)(=O)C(C)C)nsc2nc1=O", "IC50": "> 54000"}
{"smiles": "Oc1ccc(N=Nc2cccc(Cl)c2)cc1C=Nc1ccc(N2CCOCC2)cc1", "IC50": "> 54000"}
{"smiles": "CCOc1ccc2nc(N3C(=O)/C(=C/c4ccc(Cl)cc4)NC3=S)sc2c1", "IC50": 1550}
{"smiles": "CC(=O)Nc1ccc(C2=NNC(=Nc3cccc(S(=O)(=O)N(C)C)c3)SC2)cc1", "IC50": 3030}
{"smiles": "COc1ccc(-c2ccc(/C=N/NC(=O)c3cccnc3)o2)c([N+](=O)[O-])c1", "IC50": 4320}
{"smiles": "Nc1nc(N)c2cc(Sc3ccc4ccccc4c3)ccc2n1", "IC50": 4060}
{"smiles": "COc1ccc(-c2cnnc(N/N=C/c3ccc(O)cc3)n2)cc1", "IC50": 8410}
{"smiles": "O=C(CN1CCN(c2ccc(O)cc2)CC1)Nc1cc([N+](=O)[O-])ccc1Cl", "IC50": 6480}
{"smiles": "CCN(c1ccc(NC(=O)COC(=O)CCc2nc3ccccc3n2-c2ccccc2)cc1)C(C)C", "IC50": "< 400"}
{"smiles": "c1ccc(CN=C2NN=C(c3cc4ccccc4o3)CS2)cc1", "IC50": "> 54000"}
{"smiles": "Cc1sc(NC(=O)c2cc(-c3ccc(Cl)cc3)nc3ccccc23)c(C(N)=O)c1C", "IC50": 18200}
{"smiles": "O=C(O)CCCCCN1C(=O)/C(=C\\c2cn(-c3ccccc3)nc2-c2cccs2)SC1=S", "IC50": 2500}
{"smiles": "Nc1cc(C(=O)O)c(N)c2c1C(=O)c1ccccc1C2=O", "IC50": "< 400"}
{"smiles": "COc1cccc2c(=O)c3cccc(N)c3[nH]c12", "IC50": "> 54000"}
{"smiles": "CC1=C(C(=O)OCC(C)C)C(c2ccsc2)NC(=O)N1", "note": "(stereo not drawn)", "IC50": "> 54000"}
{"smiles": "COc1ccc(C(=O)Nc2ccc(N3CCCC3)cc2)cc1", "IC50": 2650}
{"smiles": "CC(C)CC1NC(=O)N(CC(=O)c2ccc3c(c2)OCCO3)C1=O", "note": "(stereo not drawn)", "IC50": "> 54000"}
{"smiles": "O=C(O)c1cccc2c1NC(C(=O)O)C1CC(Sc3ccccc3[N+](=O)[O-])C(Cl)C21", "note": "(stereo not drawn)", "IC50": 881}
{"smiles": "O=C(O)c1cccc2c1NC(c1cccc([N+](=O)[O-])c1)C1CC(Sc3ccccc3[N+](=O)[O-])C(Cl)C21", "note": "(stereo not drawn)", "IC50": 2250}
{"smiles": "Nc1ccc(N)c(C(=O)O)c1", "IC50": 1310}
{"smiles": "CCOC1=C/C(=C/c2c(N)n3nc(-c4ccccc4)sc3nc2=O)C=CC1=O", "IC50": 2430}
{"smiles": "C=C(C)C(=O)Nc1cccc(C2=NOC3(C2)C[C@@H](C(N)=O)N(C(=O)/C(C)=C/C)C3)c1", "note": "(stereo partly drawn)", "IC50": "> 54000"}
{"smiles": "Nc1ccc(Cc2ccc(N)c(O)c2)cc1O", "IC50": "< 400"}
{"smiles": "O=C(Nc1cccc(Cl)c1)c1cc(N=Nc2ccc([N+](=O)[O-])cc2Cl)ccc1O", "IC50": 1560}
{"smiles": "Cc1[nH]n(-c2ccc(Br)cc2)c(=O)c1C=Nc1ccc(S(=O)(=O)Nc2nccs2)cc1", "IC50": 8080}
{"smiles": "NC(=S)n1[nH]c(-c2ccc([N+](=O)[O-])cc2)c(N=Nc2ccc(Cl)cc2)c1=O", "IC50": "< 400"}
{"smiles": "CC(C)Nc1nnc(SCC(=O)Nc2ccc3c(c2)C(=O)c2ccccc2C3=O)s1", "IC50": 2010}
{"smiles": "CC1C(=O)NN=C1C(=O)N/N=C\\c1ccc(O)cc1O", "note": "(stereo not drawn)", "IC50": "< 400"}
{"smiles": "COc1ccc(/C=C2\\SC(=O)N(CCC(=O)Nc3ccc(S(=O)(=O)Nc4nccs4)cc3)C2=O)cc1", "IC50": "< 400"}
{"smiles": "O=C1CSC(=S)N1/N=C/c1ccc(O)c([N+](=O)[O-])c1", "IC50": 1390}
{"smiles": "COc1cc(-c2nnc(SCc3cc(=O)oc4cc(O)c(O)cc34)o2)cc(OC)c1OC", "IC50": "< 400"}
{"smiles": "COc1cccc(C(=O)Nc2ccc3nc(N4CCN(c5ncccn5)CC4)cc(C)c3c2)c1OC", "IC50": 8070}
{"smiles": "O=C1c2cccc3cc([N+](=O)[O-])cc(c23)C(=O)N1/N=C/c1ccc(O)cc1O", "IC50": 1520}
{"smiles": "Cc1[nH]n(-c2ncc(-c3ccccc3)s2)c(=O)c1C(c1ccc(Cl)cc1)C(C#N)C#N", "note": "(stereo not drawn)", "IC50": 12200}
{"smiles": "CCN(CC)c1ccc(NC(=O)/C=C\\c2ccccc2Cl)cc1", "IC50": "< 400"}
{"smiles": "CN1CCN(c2ccc([N+](=O)[O-])cc2/C=N/NC(=O)c2ccc(F)cc2)CC1", "IC50": 4750}
{"smiles": "O=C(O)c1cc(-c2ccc(/C=C3/SC(=S)N(Cc4ccccc4)C3=O)o2)ccc1Cl", "IC50": 1510}
{"smiles": "COc1ccc2[nH]c3c4c(ccc3c2c1)C(=O)C=CC4=O", "IC50": "< 400"}
{"smiles": "COc1ccccc1C(=O)N=Nc1c(O)[nH]c2ccc([N+](=O)[O-])cc12", "IC50": 4720}
{"smiles": "CS(=O)(=O)c1ccc2c(c1)SC1=NC(=O)/C(=C/c3ccco3)C(=N)N12", "IC50": 2190}
{"smiles": "O=C(COc1ccc2ccccc2c1)NNC(=O)c1ccc([N+](=O)[O-])cc1", "IC50": 8480}
{"smiles": "Nc1ccc2c(c1Cl)C(=O)c1ccc(N)c(Cl)c1C2=O", "IC50": "< 400"}
{"smiles": "COC/C=C/C1=CC2=CC(=O)C(C)(OC(=O)c3ccco3)C(=O)C2=CO1", "note": "(stereo not drawn)", "IC50": 2780}
{"smiles": "Cc1[nH]c2ccccc2c1/C=C/c1nc2ccccc2c(=O)[nH]1", "IC50": 6260}
{"smiles": "COc1cccc2c(=S)c(CCC(C)=O)c(C)[nH]c12", "IC50": 718}
{"smiles": "COc1ccc(/C=C2\\C(=O)N(c3c(Cl)cc(Cl)cc3Cl)N=C2NC(=O)c2cccc([N+](=O)[O-])c2)cc1", "IC50": 2960}
{"smiles": "O=C1NC(=O)C(=Cc2ccc(-c3cc(Cl)ccc3[N+](=O)[O-])o2)C(=O)N1", "IC50": 3250}
{"smiles": "O=C(O)CCn1cc(C=C2C(=O)NC(=S)NC2=O)c(-c2cccc(Cl)c2)n1", "IC50": 1810}
{"smiles": "C=CCSC1=N/C(=C\\C=C\\c2ccco2)C(=O)S1", "IC50": 5070}
